Columns and labels:
[1] = solubility of the metal hydride complex to toluene; assay type: physicochemical
[2] = hydrogenation of ring-opening polymer with the complex as hydrogenation catalyst (Example 4 procedure); conditions: 0.06 parts complex per 1000 parts polymer solution, hydrogen 100 kg/cm^2, 165° C., 3 hours, 1H-NMR
Method: Into a reaction vessel substituted with nitrogen were charged 250 parts of 8-methyl-8-methoxycarbonyltetracyclo[4.4.0.1^2,5.1^7,10]-3-dodecene, 18 parts of 1-hexene (molecular weight adjusting agent) and 750 parts of toluene and the resulting solution was heated to 80° C. Thereafter, to the solution in the reaction vessel were added 0.62 parts of a toluene solution of triethylaluminum (1.5 mol/L) as a polymerization catalyst and 3.7 parts of a toluene solution (concentration: 0.05 mol/L) of tungsten hexachloride modified with t-butanol and methanol (t-butanol:methanol:tungsten=0.35 mol:0.3 mol:1 mol). The ring-opening copolymerization reaction was carried out by heating and stirring this system at 80° C. for 3 hours to obtain a ring-opening metathesis polymer solution of 8-methyl-8-methoxycarbonyltetracyclo[4.4.0.1^2,5.1^7,10]-3-dodecene. The polymerization conversion rate in this polymerization reaction was 97%.
Into an autoclave was charged 1000 parts of the ring-opening polymer solution obtained above and to this solution was added as a hydrogenation catalyst a toluene solution of 0.5% by weight of the ruthenium hydride complex obtained in Example 1 in an amount (12 parts) so that the amount of added complex was 0.06 parts. The hydrogenation reaction was carried out by heating and stirring for 3 hours under the conditions of a hydrogen gas pressure of 100 kg/cm^2 and a reaction temperature of 165° C. The resulting reaction solution (hydrogenated polymer solution) was cooled and then the hydrogen gas was released. This reaction solution was poured into a large amount of methanol to separate and collect a coagulated substances which was dried to obtain a hydrogenated polymer.

[3] = hydrogenation of ring-opening copolymer with the complex as catalyst (Example 8); conditions: 0.06 parts complex, hydrogen 100 kg/cm^2, 165° C., 3 hours
Text: A ring-opening copolymer solution was obtained by carrying out the same polymerization operations as those in Example 4 except that 190 parts of 8-methyl-8-methoxycarbonyltetracyclo[4.4.0.1^2,5.1^7,10]-3-dodecene and 60 parts of spiro[fluorene-9,8′-tricyclo[4.3.0.1^2,5]dec-3-ene were used in place of 250 parts of 8-methyl-8-methoxycarbonyltetracyclo[4.4.0.1^2,5.1^7,10]-3-dodecene. The polymerization conversion rate in this polymerization reaction was 96%.
(§1) Into an autoclave was charged 1000 parts of the ring-opening copolymer solution thus obtained and to the ring-opening polymer solution was added a toluene solution of 1.0% by weight of the ruthenium hydride complex obtained in Example 2 in an amount (6 parts) so that the amount of added complex was 0.06 parts. The hydrogenation reaction was carried out by heating and stirring for 3 hours under the conditions of a hydrogen gas pressure of 100 kg/cm^2 and a reaction temperature of 165° C. The resulting reaction solution (hydrogenated polymer solution) was cooled and then the hydrogen gas was released. […] This polymer was analyzed by ^1H-NMR and the hydrogenation rate was determined by the ratio of the integral value of the saturated hydrocarbons at 0.6 to 2.5 ppm to the integral value of the unsaturated hydrocarbons at 5.0 to 5.6 ppm.

[4] = autoclave hydrogenation of DNM/DCP polymer (Example 9 procedure)
Method: (§2) ^1H-NMR was measured by using AVANCE500 manufactured by BRUKER as a nuclear magnetic resonance spectrometer (NMR) with chloroform-d as a measuring solvent. The composition of a monomer was calculated from the integral value of the vinylene group at 5.1 to 5.8 ppm, the methoxy group at 3.7 ppm and the aliphatic proton at 0.6 to 2.8 ppm, and then the hydrogenation rate was calculated.
Into a reaction vessel substituted with nitrogen were charged 75 parts by weight of 8-methoxycarbonyl-8-methyltetracyclo[4.4.0.1^2,5.1^7,10]-3-dodecene (DNM) and 25 parts by weight of dicyclopentadiene (DCP) as monomers, 6 parts by weight of 1-butene as a molecular weight adjusting agent and 170 parts by weight of toluene, and the resultant mixture was heated to 100° C. To this mixture were added 0.005 parts by weight of triethylaluminum, 0.005 parts by weight of methanol-modified WCl6 (anhydrous methanol:PhPOCl2:WCl6=103:630:427 (weight ratio)), and the reaction was carried out at 100° C. for one hour to obtain a polymer. The conversion was 100%.
Next, into a pressure-proof autoclave with a design temperature of 185° C. and a capacity of 1.25 m^3 were charged a solution of the polymer obtained above equivalent to 350 kg of the solid component and as a hydrogenation catalyst 0.0335 parts by weight of RuH(CO)[P(C6H5)]2(OCO-p-Ph-n-C5H13) of which saturation solubility to toluene at 25° C. is 5% by weight based on 100 parts by weight equivalent to the polymer solid component conversion, and the autoclave was heated to 100° C. Then, hydrogen gas was introduced to the autoclave to increase the pressure to 10 MPa. The maximum attained temperature during the hydrogenation reaction was 179° C. The theoretical value of generated heat was calculated from DNM=129.3 kcal/kg and DCP=452.3 kcal/kg. Thereafter, the reaction was carried out at 165° C. for 3 hours while maintaining the pressure at 10 MPa to obtain a hydrogenated product. […]

[5] = autoclave hydrogenation of DNM/DCP/NB polymer (Example 10 procedure); conditions: gelation inhibitor
Method: as §2
A hydrogenated product was obtained in the same way as Example 1 except that in Example 9, there were charged 65 parts by weight of 8-methoxycarbonyl-8-methyltetracyclo[4.4.0.1^2,5.1^7,10]-3-dodecene (DNM), 25 parts by weight of dicyclopentadiene (DCP) and 10 parts by weight of norbornene (NB) as monomers and 190 parts by weight of toluene to synthesize a polymer, and the charged amount equivalent to the solid component of the polymer was changed to 330 kg in the hydrogenation reaction. […] The maximum attained temperature during the hydrogenation reaction was 179° C. The theoretical value of generated heat was calculated from DNM=129.3 kcal/kg, DCP=452.3 kcal/kg and NB=319.3 kcal/kg.

[6] = hydrogenation of ring-opening copolymer with the complex as catalyst (Example 7); conditions: 0.06 parts complex, hydrogen 100 kg/cm^2, 165° C., 3 hours
Text: A ring-opening polymer solution was obtained by carrying out the same polymerization operations as those in Example 4 except that 187.5 parts of 8-methyl-8-methoxycarbonyltetracyclo[4.4.0.1^2,5.1^7,10]-3-dodecene and 62.5 parts of tricyclo[4.3.0.1^2,5]deca-3,8-diene were used in place of 250 parts of 8-methyl-8-methoxycarbonyltetracyclo[4.4.0.1^2,5.1^7,10]-3-dodecene. The polymerization conversion rate of this polymerization reaction was 98%.
as §1, with “ring-opening copolymer” for “ring-opening polymer”, “conditions including” for “conditions of”

[7] = hydrogen introduced at 100° C., 10 MPa, 165° C. for 3 hours

Molecule | solubility to toluene at 20° C. [1] [% by weight] | hydrogenation rate of the hydrogenated polymer [2] [%] | saturation solubility to toluene at 25° C. [1] [% by weight] | saturation solubility to toluene ([1]; temperature not given) [% by weight] | hydrogenation rate of the main chain of the copolymer [3] [%] | olefinic unsaturated bonds in the main chain hydrogenated (hydrogenation rate) [4, 7] [%] | olefinic unsaturated bonds in the main chain hydrogenated (hydrogenation rate) ([4]; hydrogen introduction temperature 150° C., 600 parts toluene, gelation inhibitor) [%] | olefinic unsaturated bonds in the main chain hydrogenated (hydrogenation rate) ([5]; hydrogen introduction temperature 100° C.) [%] | olefinic unsaturated bonds in the main chain hydrogenated (hydrogenation rate) ([5]; hydrogen introduction temperature 150° C., 700 parts toluene) [%] | hydrogenation rate of the main chain of the copolymer [6] [%] | hydrogenation rate of the unsaturated double bonds derived from the side chain of tricyclo[4.3.0.1^2,5]deca-3,8-diene [6] [%]
RuH(OCOPh)(CO)(PPh3)2 [Example 1] | 0.5 | 99.99 |  |  |  |  |  |  |  |  | 
[C-]#[O+].[Cl][RuH].c1ccc(P(c2ccccc2)c2ccccc2)cc1.c1ccc(P(c2ccccc2)c2ccccc2)cc1.c1ccc(P(c2ccccc2)c2ccccc2)cc1 [RuHCl(CO)(PPh3)3, reference compound] | 0.03 | 99.75 | 0.05 | 0.05 | 99.30 | ≥ 99.9 | ≥ 99.9 | ≥ 99.9 | ≥ 99.9 |  | 
RuH(OCOPh-C5H11)(CO)(PPh3)2 [Example 2] | 1.0 | 99.95 |  |  | 99.93 |  |  |  |  | 99.97 | ≥ 99.99
RuH(CO)[P(C6H5)]2(OCO-p-Ph-n-C5H13) |  |  | 5 |  |  | ≥ 99.9 |  |  |  |  | 
RuH(OCOPh-C8H17)(CO)(PPh3)2 [Example 3] | 5.0 | 99.90 |  |  |  |  |  |  |  |  | 

— patent US20090176950A1, “METAL HYDRIDE COMPLEX, METHOD OF HYD[…]-OPENING POLY[…] OF CYCLOOLEFIN, AND PROCESS FOR PRODUCING PRODUCT OF HYD[…] RING-OPENING POLY[…] OF CYCLOOLEFIN” (JSR CORPORATION, priority 2005, published 2009)
